Measurements: PubChem BioAssay (NCI)
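Dose response: 5 concentrations. Exposure: 48 h. Format: 96-well plates. Endpoint: linear interpolation; highest concentration if not reached. Here, GI50 denotes the concentration required for 50% inhibition of growth. Definition used: TGI = concentration required for complete inhibition of growth.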

Columns and labels:
Test in all cases: NCI-60 cell line screen, 48 h; in the data active = GI50 below about 0.43 µM; inactive = the rest
SF-295 CNS = tested on: SF-295 CNS
PC-3 prostate = tested on: PC-3 prostate
NCI-H23 lung = tested on: NCI-H23 lung
SF-539 CNS = tested on: SF-539 CNS
MCF7 breast = tested on: MCF7 breast
OVCAR-4 ovarian = tested on: OVCAR-4 ovarian
SK-OV-3 ovarian = tested on: SK-OV-3 ovarian
UO-31 renal = tested on: UO-31 renal
TK-10 renal = tested on: TK-10 renal
HOP-92 NSCLC = tested on: HOP-92 NSCLC
SK-MEL-5 melanoma = tested on: SK-MEL-5 melanoma
SNB-19 CNS = tested on: SNB-19 CNS
786-0 renal = tested on: 786-0 renal
LOX IMVI melanoma = tested on: LOX IMVI melanoma
SW-620 colon = tested on: SW-620 colon
A549 NSCLC = tested on: A549 NSCLC
IGROV1 ovarian = tested on: IGROV1 ovarian
NCI-H522 lung = tested on: NCI-H522 lung
HOP-62 NSCLC = tested on: HOP-62 NSCLC
CCRF-CEM leukemia = tested on: CCRF-CEM leukemia
MDA-MB-231 breast = tested on: MDA-MB-231 breast
RXF 393 renal = tested on: RXF 393 renal
CAKI-1 renal = tested on: CAKI-1 renal
K-562 leukemia = tested on: K-562 leukemia
RPMI-8226 leukemia = tested on: RPMI-8226 leukemia
A498 renal = tested on: A498 renal
HS 578T breast = tested on: HS 578T breast
SN12C renal = tested on: SN12C renal
DU-145 prostate = tested on: DU-145 prostate
HCT-15 colon = tested on: HCT-15 colon
EKVX NSCLC = tested on: EKVX NSCLC
MOLT-4 leukemia = tested on: MOLT-4 leukemia
OVCAR-5 ovarian = tested on: OVCAR-5 ovarian
HCT-116 colon = tested on: HCT-116 colon
NCI-H226 lung = tested on: NCI-H226 lung
HCC-2998 colon = tested on: HCC-2998 colon
BT-549 breast = tested on: BT-549 breast
HT29 colon = tested on: HT29 colon
M14 melanoma = tested on: M14 melanoma
OVCAR-3 ovarian = tested on: OVCAR-3 ovarian
UACC-62 melanoma = tested on: UACC-62 melanoma
NCI/ADR-RES ovarian = tested on: NCI/ADR-RES ovarian
SNB-75 CNS = tested on: SNB-75 CNS
NCI-H460 lung = tested on: NCI-H460 lung
ACHN renal = tested on: ACHN renal
SR leukemia = tested on: SR leukemia
SK-MEL-2 melanoma = tested on: SK-MEL-2 melanoma
OVCAR-8 ovarian = tested on: OVCAR-8 ovarian
T-47D breast = tested on: T-47D breast
KM12 colon = tested on: KM12 colon
SK-MEL-28 melanoma = tested on: SK-MEL-28 melanoma
HL-60(TB) leukemia = tested on: HL-60(TB) leukemia
COLO 205 colon = tested on: COLO 205 colon
MDA-MB-435 = tested on: MDA-MB-435
U251 CNS = tested on: U251 CNS
UACC-257 melanoma = tested on: UACC-257 melanoma
MALME-3M melanoma = tested on: MALME-3M melanoma
SF-268 CNS = tested on: SF-268 CNS
MDA-N = tested on: MDA-N

O=C1CC(c2c[nH]c3ccc(F)cc23)C(=O)N1 (configuration not stated)
inactive: GI50 (SF-295 CNS) > 100 µM | GI50 (PC-3 prostate) > 100 µM | GI50 (NCI-H23 lung) > 100 µM | GI50 (SF-539 CNS) > 100 µM | GI50 (MCF7 breast) > 100 µM | GI50 (OVCAR-4 ovarian) > 100 µM | GI50 (SK-OV-3 ovarian) > 100 µM | GI50 (UO-31 renal) > 100 µM | GI50 (TK-10 renal) > 100 µM | GI50 (HOP-92 NSCLC) > 100 µM | GI50 (SK-MEL-5 melanoma) > 100 µM | GI50 (SNB-19 CNS) > 100 µM | GI50 (786-0 renal) > 100 µM | GI50 (LOX IMVI melanoma) > 100 µM | GI50 (SW-620 colon) > 100 µM | GI50 (A549 NSCLC) > 100 µM | GI50 (IGROV1 ovarian) > 100 µM | GI50 (NCI-H522 lung) > 100 µM | GI50 (HOP-62 NSCLC) > 100 µM | GI50 (CCRF-CEM leukemia) > 100 µM | GI50 (MDA-MB-231 breast) > 100 µM | GI50 (RXF 393 renal) > 100 µM | GI50 (CAKI-1 renal) > 100 µM | GI50 (K-562 leukemia) > 100 µM | GI50 (RPMI-8226 leukemia) > 100 µM | GI50 (A498 renal) > 100 µM | GI50 (HS 578T breast) > 100 µM | GI50 (SN12C renal) > 100 µM | GI50 (DU-145 prostate) > 100 µM | GI50 (HCT-15 colon) > 100 µM | GI50 (EKVX NSCLC) > 100 µM | GI50 (MOLT-4 leukemia) > 100 µM | GI50 (OVCAR-5 ovarian) > 100 µM | GI50 (HCT-116 colon) > 100 µM | GI50 (NCI-H226 lung) > 100 µM | GI50 (HCC-2998 colon) > 100 µM | GI50 (BT-549 breast) > 100 µM | GI50 (HT29 colon) > 100 µM | GI50 (M14 melanoma) > 100 µM | GI50 (OVCAR-3 ovarian) > 100 µM | GI50 (UACC-62 melanoma) > 100 µM | GI50 (NCI/ADR-RES ovarian) > 100 µM | GI50 (SNB-75 CNS) > 100 µM | GI50 (NCI-H460 lung) > 100 µM | GI50 (ACHN renal) > 100 µM | GI50 (SR leukemia) > 100 µM | GI50 (SK-MEL-2 melanoma) > 100 µM | GI50 (OVCAR-8 ovarian) > 100 µM | GI50 (T-47D breast) > 100 µM | GI50 (KM12 colon) > 100 µM | GI50 (SK-MEL-28 melanoma) > 100 µM | GI50 (HL-60(TB) leukemia) > 100 µM | GI50 (COLO 205 colon) > 100 µM | GI50 (MDA-MB-435) > 100 µM | GI50 (U251 CNS) > 100 µM | GI50 (UACC-257 melanoma) > 100 µM | GI50 (MALME-3M melanoma) > 100 µM | GI50 (SF-268 CNS) > 100 µM
> 100 µM: TGI (SF-295 CNS) | TGI (PC-3 prostate) | TGI (NCI-H23 lung) | TGI (SF-539 CNS) | TGI (MCF7 breast) | TGI (OVCAR-4 ovarian) | TGI (SK-OV-3 ovarian) | TGI (UO-31 renal) | TGI (TK-10 renal) | TGI (HOP-92 NSCLC) | TGI (SK-MEL-5 melanoma) | TGI (SNB-19 CNS) | TGI (786-0 renal) | TGI (LOX IMVI melanoma) | TGI (SW-620 colon) | TGI (A549 NSCLC) | TGI (IGROV1 ovarian) | TGI (NCI-H522 lung) | TGI (HOP-62 NSCLC) | TGI (CCRF-CEM leukemia) | TGI (MDA-MB-231 breast) | TGI (RXF 393 renal) | TGI (CAKI-1 renal) | TGI (K-562 leukemia) | TGI (RPMI-8226 leukemia) | TGI (A498 renal) | TGI (HS 578T breast) | TGI (SN12C renal) | TGI (DU-145 prostate) | TGI (HCT-15 colon) | TGI (EKVX NSCLC) | TGI (MOLT-4 leukemia) | TGI (OVCAR-5 ovarian) | TGI (HCT-116 colon) | TGI (NCI-H226 lung) | TGI (HCC-2998 colon) | TGI (BT-549 breast) | TGI (HT29 colon) | TGI (M14 melanoma) | TGI (OVCAR-3 ovarian) | TGI (UACC-62 melanoma) | TGI (NCI/ADR-RES ovarian) | TGI (SNB-75 CNS) | TGI (NCI-H460 lung) | TGI (ACHN renal) | TGI (SR leukemia) | TGI (SK-MEL-2 melanoma) | TGI (OVCAR-8 ovarian) | TGI (T-47D breast) | TGI (KM12 colon) | TGI (SK-MEL-28 melanoma) | TGI (HL-60(TB) leukemia) | TGI (COLO 205 colon) | TGI (MDA-MB-435) | TGI (U251 CNS) | TGI (UACC-257 melanoma) | TGI (MALME-3M melanoma) | TGI (SF-268 CNS)

CC(=O)OI1NC(=O)c2ccccc21
> 100 µM: TGI (SF-295 CNS) | TGI (PC-3 prostate) | TGI (NCI-H23 lung) | TGI (MCF7 breast) | TGI (OVCAR-4 ovarian) | TGI (SK-OV-3 ovarian) | TGI (UO-31 renal) | TGI (TK-10 renal) | TGI (HOP-92 NSCLC) | TGI (SK-MEL-5 melanoma) | TGI (SNB-19 CNS) | TGI (786-0 renal) | TGI (LOX IMVI melanoma) | TGI (SW-620 colon) | TGI (A549 NSCLC) | TGI (IGROV1 ovarian) | TGI (NCI-H522 lung) | TGI (HOP-62 NSCLC) | TGI (CCRF-CEM leukemia) | TGI (MDA-MB-231 breast) | TGI (K-562 leukemia) | TGI (RPMI-8226 leukemia) | TGI (A498 renal) | TGI (HS 578T breast) | TGI (SN12C renal) | TGI (DU-145 prostate) | TGI (HCT-15 colon) | TGI (EKVX NSCLC) | TGI (MOLT-4 leukemia) | TGI (OVCAR-5 ovarian) | TGI (HCT-116 colon) | TGI (NCI-H226 lung) | TGI (HT29 colon) | TGI (M14 melanoma) | TGI (OVCAR-3 ovarian) | TGI (MDA-N) | TGI (UACC-62 melanoma) | TGI (NCI/ADR-RES ovarian) | TGI (SNB-75 CNS) | TGI (ACHN renal) | TGI (SR leukemia) | TGI (SK-MEL-2 melanoma) | TGI (OVCAR-8 ovarian) | TGI (KM12 colon) | TGI (SK-MEL-28 melanoma) | TGI (HL-60(TB) leukemia) | TGI (COLO 205 colon) | TGI (MDA-MB-435) | TGI (U251 CNS) | TGI (MALME-3M melanoma) | TGI (SF-268 CNS)

Clc1ccc(Nc2nnc(CNc3ccc(-c4nnc(Nc5ccc(Cl)cc5)s4)cc3)s2)cc1
79.3 µM: TGI (SK-MEL-5 melanoma)
75.1 µM: TGI (786-0 renal)
36.6 µM: TGI (KM12 colon)
58.1 µM: TGI (MDA-N)
48.9 µM: TGI (HCC-2998 colon)
44.2 µM: TGI (UO-31 renal)
45.3 µM: TGI (COLO 205 colon)
43.2 µM: TGI (NCI-H522 lung)
> 100 µM: TGI (PC-3 prostate) | TGI (NCI-H23 lung) | TGI (MCF7 breast) | TGI (OVCAR-4 ovarian) | TGI (SK-OV-3 ovarian) | TGI (TK-10 renal) | TGI (HOP-92 NSCLC) | TGI (SNB-19 CNS) | TGI (SW-620 colon) | TGI (A549 NSCLC) | TGI (IGROV1 ovarian) | TGI (HOP-62 NSCLC) | TGI (MDA-MB-231 breast) | TGI (RXF 393 renal) | TGI (CAKI-1 renal) | TGI (K-562 leukemia) | TGI (RPMI-8226 leukemia) | TGI (A498 renal) | TGI (SN12C renal) | TGI (DU-145 prostate) | TGI (HCT-15 colon) | TGI (EKVX NSCLC) | TGI (MOLT-4 leukemia) | TGI (OVCAR-5 ovarian) | TGI (NCI-H226 lung) | TGI (BT-549 breast) | TGI (NCI/ADR-RES ovarian) | TGI (SNB-75 CNS) | TGI (NCI-H460 lung) | TGI (ACHN renal) | TGI (SK-MEL-28 melanoma) | TGI (MDA-MB-435) | TGI (U251 CNS) | TGI (UACC-257 melanoma) | TGI (MALME-3M melanoma) | TGI (SF-268 CNS)
30.8 µM: TGI (HCT-116 colon)
67.6 µM: TGI (SK-MEL-2 melanoma)
24.4 µM: TGI (HT29 colon)
84.3 µM: TGI (SF-295 CNS)
64.9 µM: TGI (UACC-62 melanoma)
58.4 µM: TGI (M14 melanoma)
